Test results published in patent publication US20250152605A1, “METHOD AND DRUG FOR TREATING NEURONAL CEROID LIPOFUSCINOSIS” (priority 2021, published 2025).
“Also recorded” adds a separate entry of the source.

Legend:
CLN3^Δex7/8 neurons = assay: Mitochondrial morphology with OMP25-GFP, laser confocal microscope; assay type: cell-based, human
Source text: Studies have shown that healthy mitochondria have a short stick-like morphology, with large potential differences across the mitochondrial membrane, which allows efficient generation of ATP that maintains normal cellular function. Damaged mitochondria undergo the process of mitochondrial fission, in which the mitochondria split into a punctate morphology, encapsulated by autophagosome, and transported into lysosomes for degradation. To detect the presence of abnormal mitochondrial morphology in CLN3^Δex7/8 human neurons, a Lentivirus plasmid with green fluorescent protein labeled OMP25 was constructed and used to infect wild-type and CLN3^Δex7/8 human neurons
To test the effect of compound G on mitochondrial homeostasis in CLN3^Δex7/8 neurons, fluorescently labeled mitochondrial outer membrane protein OMP25-GFP was overexpressed in neurons, and the morphological changes of mitochondria were observed by laser confocal microscope. […] The amount of ATP generation in the same number of neurons was tested using Cell Titer Glo reagent.

KEAP1 protein = target: T1, KEAP1 protein (Homo sapiens, UniProt Q14145); assay: Quantitative thiol reactivity analysis; assay type: binding; conditions: CLN3^Δex7/8 human neural stem cells, 30 μM, 2 hours, mass spectrometry
T1 construct: mass spectrometry was used to analyze the thiol reactivity of the cysteine residues on KEAP1 in the lysate; endogenous in cells; host or cells: CLN3 Δex7/8 human neural stem cells differentiated from H9 human embryonic stem cells
Procedure: To determine the protein covalently bound to Compound G, a Compound G-binding proteomic analysis with the following steps was performed: neural stem cells were cultured in 10 cm cell culture dishes to a cell density of 90%. 1-2 mg of protein could be obtained after the neural stem cells in a 10 cm cell culture dish are lysed; the supernatant was aspirated, fresh medium containing 30 μM Compound G or medium containing an equal volume of solvent DMSO was added, followed by incubation in a cell culture incubator at 37° C. for 2 hours; the cell medium was aspirated followed by washing once with 10 mL of dPBS, and the aspiration should be as clean as possible.
The cell culture dish was placed on ice and added with RIPA cell lysis buffer with protease inhibitors and phosphatase inhibitors (for the formulation, please refer to the flow cytometry analysis and sorting section); all cells were scraped off on ice using a cell scraper and collected into 1.5 mL EP tubes; the sample was placed on ice and ultrasonically broken with an ultrasonic power of 20% and with ultrasound 5 times for 3 seconds each time; ENE probe at a final concentration of 100 μM was added to each sample, followed by incubation for 1 hour in the dark while rotating. ENE could react with sulfhydryl groups in protein cysteine residues to produce stable thioether bonds. […]

NRF2 downstream genes = assay: qRT-PCR of NRF2 downstream genes; assay type: cell-based; conditions: CLN3^Δex7/8 human neural stem cells, 6 hours
Procedure: The cells in the cell-culture dish were collected, extracted using AxyPrep Total RNA Mini Prep Kit or Qiagen AxyPrep Total RNA Mini Prep Kit, and the extracted RNA concentration is measured using Nanodrop; the extracted mRNA was reverse transcribed into cDNA by Transgen's EasyScript® One-Step gDNA Removal and cDNA Synthesis SuperMix and the primers used for reverse transcription were Oligo dT primers; the completion of reverse transcription followed by qRT-PCR reaction through PerfectStart™ Green qPCR SuperMix to detect the expression of the target gene; the qRT-PCR reaction was performed on the Bio-Rad CFX96 Real-Time PCR system; see Table 2 and Table 3 for the 20 μL qRT-PCR reaction system and reaction procedures; data analysis was performed in Prism 7 software using the 2^−ΔΔCt process with GAPDH as internal reference for relative quantification of the expression of the target gene.
Primers were further designed, verification of qRT-PCR was conducted on the above activated genes in the downstream of NRF2. After treating CLN3^Δex7/8 human neural stem cells with Compound G for 6 hours, the cells were collected and mRNA was extracted for detecting the expression level of the genes.

[1] = system: CLN3^Δex7/8 human neurons; assay: Lysotracker staining of CLN3^Δex7/8 human neurons, flow cytometry; assay type: cell-based
Procedure: In analyzing the mean fluorescence intensity of neural stem cells and neuronal staining or single cell establishment of NRK cells, flow cytometry was used: the cell medium was aspirated off, after wash with dPBS once, the digestive enzyme corresponding to the cell type was added to digest into single cells; the supernatant was removed by centrifugation, and the cells were resuspended with 1 mL of fresh medium; the cell suspension with filtered through 40 μm filter membrane and the single cell filtrate was collected; the single cell filtrate was transferred to a flow tube and analyzed or sorted using BD FACS Aria III; in the analysis, the fluorescence intensity of 1×10^4 cells for each sample was analyzed to obtain the mean fluorescence intensity (MFI); for sorting, cells were received in 96 well plates with medium, one cell per well to establish a cell line.
Studies above have shown that CLN3^Δex7/8 human neurons feature lysosomal acidity dysregulation. To investigate the effect of Compound G on lysosomal acidity in CLN3^Δex7/8 neurons, Lysotracker dye was used for staining and flow cytometry was used for analyzing the fluorescence intensity of Lysotracker dye in cells.

T1 sequence (Q14145 whole entry): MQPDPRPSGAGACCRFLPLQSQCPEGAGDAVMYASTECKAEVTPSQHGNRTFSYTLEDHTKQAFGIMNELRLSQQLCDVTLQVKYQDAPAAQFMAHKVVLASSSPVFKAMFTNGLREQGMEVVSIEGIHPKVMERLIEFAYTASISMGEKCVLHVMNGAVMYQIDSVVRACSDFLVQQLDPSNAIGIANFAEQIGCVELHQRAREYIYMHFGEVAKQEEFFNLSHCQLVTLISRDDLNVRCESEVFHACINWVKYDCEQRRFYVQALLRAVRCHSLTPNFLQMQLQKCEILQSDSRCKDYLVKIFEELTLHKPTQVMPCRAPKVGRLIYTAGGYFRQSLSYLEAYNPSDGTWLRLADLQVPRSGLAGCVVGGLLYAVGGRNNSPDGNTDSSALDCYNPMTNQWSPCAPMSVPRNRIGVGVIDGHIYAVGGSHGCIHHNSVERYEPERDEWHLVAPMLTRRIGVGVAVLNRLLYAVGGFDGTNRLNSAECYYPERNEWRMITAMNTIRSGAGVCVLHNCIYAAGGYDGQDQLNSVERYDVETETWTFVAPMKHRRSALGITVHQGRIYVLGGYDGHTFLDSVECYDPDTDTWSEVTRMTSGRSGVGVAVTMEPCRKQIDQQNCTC

C/C=C1\C(=O)C[C@H]2[C@@H]3CCC4=CC(=O)CC[C@]4(C)[C@H]3CC[C@]12C [Compound G, (Z)-guggulsterone]
damaged punctate mitochondria (CLN3^Δex7/8 neurons): significantly reduce the occurrence of damaged punctate mitochondria; also recorded: significantly reduce the appearance of the damaged mitochondria
thiol reactivity of the cysteine residues on KEAP1 (KEAP1 protein): reduce the thiol reactivity of cysteine residue 288
expression level of most NRF2 downstream genes (NRF2 downstream genes): significantly increase
Lysotracker fluorescence intensity in CLN3^Δex7/8 human neurons [1]: increased significantly
